Literature values as cited in patent US20090252647A1, “COMPOSITIONS AND METHODS FOR APPLYING ANTIMICROBIALS TO SUBSTRATES” (Crosstex International, Inc., priority 2008, published 2009).

CCCCCCCCCCCCCCCCCC[N+](C)(C)CCC[Si](O)(O)O.[Cl-] [3-(trihydroxysilyl)propyldimethyloctadecyl ammonium chloride]
solubility in water: approximately 15 % w/v
